Results taken from US20250034200A1, “Prodrugs of Neurosteroid Analogs and Uses Thereof” (priority 2021, published 2025).
Values after ≈ are worked out from the molar mass of the structure shown. Where a name gives a salt, the structure may show the parent alone. Read-outs that look alike come from different tables or passages of the source.

What was measured:
[1] = Plasma stability assay (LC-MS/MS); format: in vitro ADME; details: human plasma, 37° C., 3 μM
Experimental: Procaine and procainamide were purchased from Sigma Aldrich. HPLC-grade acetonitrile, water, methanol, and formic acid were purchased from Fisher Scientific. Human plasma (Cat. No. […]2N) was obtained from BIOIVT, and PBS (1×Dulbecco's, pH 7.4) from Thermo Fisher Scientific.
Test compounds were dissolved in DMSO to make a stock solution of 10 mM and then diluted to 500 μM in buffer or 70% methanol. Human plasma was thawed at ambient temperature and aliquoted (994.0 μL) to a 1.5 mL Eppendorf tube in duplicates (vials A and B) for each compound. The plasma was incubated at 37° C. for 10 min in an incubator shaker at 150 RPM; the reaction was initiated by addition of the test compound (6.0 μL), followed by vortex mixing. The total reaction volume was 1000 μL, the final organic solvent concentrations were […] (when 70% methanol was used for dilution) and 0.03% DMSO, and the final concentration of the test compound was 3 μM. The spiked plasma samples were incubated at 37° C. for 4 h. The reactions were terminated at time point 0, 15, 30, 60, 120, 180, and 240 min by taking a 100 μL aliquot from the test incubation mixture and immediately quenching it by adding it into ice-cold acetonitrile or methanol (150 μL) containing 2 μM internal standard (ISTD), followed by vortex mixing. The ISTD was d5-7-ethoxy coumarin. The samples were then centrifuged at 15000 RPM for 25 min at 4° C., and the supernatant was transferred to an LC-MS vial for analysis by LC-MS/MS. Each time point was tested in duplicates followed by in-between blank washes to avoid carryover and to equilibrate the column.
Procaine (poor plasma stability) and procainamide (good plasma stability) were used as controls at the same concentration as that of the test compound. These controls were run in parallel to test the assay's competency. Matrix blank was prepared by adding acetonitrile or methanol containing ISTD to plasma samples without any of the test or control compounds. Also, an additional control sample was made to simply monitor compound degradation in PBS buffer.
Below is a summary of samples prepared for a given test compound in a typical plasma stability assay: • Test compound (TC): 994 μL human plasma+6.0 μL TC (Vial A) 994 μL human plasma+6.0 μL TC (Vial B) • Control: 596 μL human plasma+3.6 μL (procaine+procainamide) • Blank matrix: 500 μL PBS buffer+100 μL human plasma • Additional control: 142 μL PBS buffer+0.9 μL TC • Quenching mixture: 150 μL acetonitrile or methanol with ISTD (2 μM) • Final volume: 250 μL (100 μL from the incubation mixture+150 μL quenching mixture; final ISTD conc.: 1.2 μM)
LC-MS/MS analysis was performed using Agilent 1260 Infinity II HPLC, coupled with an Agilent G6460 triple quadrupole mass spectrometer (Agilent Technologies, USA). The data were acquired and processed using the Agilent 6460 Quantitative Analysis data processing software.
Reverse-phase HPLC separation for each compound was achieved on an Agilent InfinityLab Poroshell 120 C18 column (2.1×50 mm, 2.7 μm) with a mobile phase composed of methanol/water with 0.1% formic acid or acetonitrile/water with 0.1% formic acid at a flow rate of 0.5 mL/min. Each method was developed in the presence of the ISTD. The column temperature was maintained at 40° C. The detection was operated using the Agilent Jet-Stream electrospray positive ionization under the multiple reaction monitoring mode. The mass spec conditions were as follows: dwell time 100 ms; gas flow 10 L/min; nebulizer pressure 45 psi; delta EMV 200 V.
Plots of time (x-axis) vs. the natural logarithm of percent parent remaining (y-axis) were subsequently constructed to determine the slope. Finally, the plasma stability was evaluated using the following equation: […]

[2] = Nephelometry (aqueous solubility); format: physicochemical; details: DPBS with 1% DMSO, aqueous buffer, kinetic from dmso stock, DPBS pH 7.0-7.3, 1% DMSO, 25° C.
Text: Well A1 of the plate contained 100% DMSO.

[3] = Aqueous stability assay (HPLC, pseudo first-order half-life); format: physicochemical; details: DPBS pH 7.0-7.3, 1 mg/mL, room temperature; for half-life at 1 mg/mL / half-life: buffer, read-out: PBS t1/2 (converted)
Experimental: Aqueous stability experiments were performed on an Agilent 1100 HPLC equipped with an Agilent 1200 autosampler. HPLC grade solvents were exclusively used during analysis, with acetonitrile being purchased from Sigma Aldrich, and water and formic acid provided by Fisher Scientific. […]
[…] All mixtures were then sonicated for 5 min or stirred until complete dissolution was achieved. Any precipitate observed in sample solutions was filtered with a PTFE syringe filter prior to analysis. Immediately after sample preparation, injection by the HPLC autosampler was performed, which was recorded as the initial time point (t=0 min). Samples were then kept in the autosampler at room temperature and injected at designated intervals without additional filtration or sample modification. Next, the area of the parent peak in each chromatogram was determined by automated integration in the Agilent ChemStation software. Pseudo first-order half-lives were then ascertained by calculating the percent of the parent compound remaining after each time point. Plots of time (x-axis) vs. the natural logarithm of percent parent remaining (y-axis) were subsequently constructed to determine the slope. Finally, the aqueous stability was evaluated using the following equation:
The HPLC conditions were as follows: injection volume, 1 μL; column temperature: 40° C.; detector: 254 nm; stationary phase: Zorbax Eclipse XDB-C18 (4.6×150 mm, 5 μm); flow rate: 1 mL/min; mobile phase: 80-95% acetonitrile in H2O (0.1% formic acid).

[4] = read-out: Plasma t1/2 (converted)

For `C/C(=N\OC(=O)NCCN)[C@H]1CC[C@H]2[C@@H]3CCC4=CC(=O)CC[C@]4(C)[C@H]3CC[C@]12C` [32a, (8S,9S,10R,13S,14S,17S)-17-((E)-1-((((2-aminoethyl)carbamoyl)oxy)imino)ethyl)-10,13-dimethyl-1,2,6,7,8,9,10,11,12,13,14,15,16,17-tetradecahydro-3H-cyclopenta[a]phenanthren-3-one hydrochloride], the “Plasma t1/2” value [1] was over 2 h, the solubility at 90 min [2] was over 750 µM and the half-life at 1 mg/mL [3] was over 30 h.
In the case of `CNCCN(CCO)C(=O)O/N=C(\C)[C@H]1CC[C@H]2[C@@H]3CCC4=CC(=O)CC[C@]4(C)[C@H]3CC[C@]12C` [32c, 2-((((((E)-1-((8S,9S,10R,13S,14S,17S)-10,13-dimethyl-3-oxo-2,3,6,7,8,9,10,11,12,13,14,15,16,17-tetradecahydro-1H-cyclopenta[a]phenanthren-17-yl)ethylidene)amino)oxy)carbonyl)(2-hydroxyethyl)amino)-N-methylethan-1-aminium chloride], the half-life at 3 µM [1, 4] is reported as 1.7 h, the solubility at 90 min [2] is reported as over 500 µM and the half-life at 1 mg/mL [3] is reported as 24.8 ± 1.1 h.
`C/C(=N\OC(=O)NC[C@@H]1CCCCN1)[C@H]1CCC2[C@@H]3CCC4=CC(=O)CC[C@]4(C)[C@H]3CC[C@@]21C` (stereo partly drawn) [32i, (8S,9S,10R,13S,17S)-10,13-dimethyl-17-((E)-1-((((((S)-piperidin-2-yl)methyl)carbamoyl)oxy)imino)ethyl)-1,2,6,7,8,9,10,11,12,13,14,15,16,17-tetradecahydro-3H-cyclopenta[a]phenanthren-3-one hydrochloride] showed a solubility at 90 min [2] of over 750 µM and a half-life at 1 mg/mL ([3]; d (days)) of 684 h.
In the case of `CNCCN(C(=O)O/N=C(\C)[C@H]1CC[C@H]2[C@@H]3CCC4=CC(=O)CC[C@]4(C)[C@H]3CC[C@]12C)C1CCC1.O=C(O)C(F)(F)F` [53c, (E)-5-cyclobutyl-9-((8S,9S,10R,13S,14S,17S)-10,13-dimethyl-3-oxo-2,3,6,7,8,9,10,11,12,13,14,15,16,17-tetradecahydro-1H-cyclopenta[a]phenanthren-17-yl)-7-oxa-2,5,8-triazadec-8-en-6-one 2,2,2-trifluoroacetate], the solubility at 90 min [2] is reported as over 750 µM and the “PBS t1/2” value [3] is reported as 11.79 ± 0.51 h.
In the case of `CNCCN(CCN(C)C)C(=O)O/N=C(\C)[C@H]1CC[C@H]2[C@@H]3CCC4=CC(=O)CC[C@]4(C)[C@H]3CC[C@]12C.O=C(O)C(F)(F)F` [53f, (E)-9-((8S,9S,10R,13S,14S,17S)-10,13-dimethyl-3-oxo-2,3,6,7,8,9,10,11,12,13,14,15,16,17-tetradecahydro-1H-cyclopenta[a]phenanthren-17-yl)-2-methyl-5-(2-(methylamino)ethyl)-7-oxa-2,5,8-triazadec-8-en-6-one 2,2,2-trifluoroacetate], the solubility at 90 min [2] is reported as over 500 µM and the “PBS t1/2” value [3] is reported as 2.17 ± 0.02 h.
For `CNCCN(CCNC)C(=O)O/N=C(\C)[C@H]1CC[C@H]2[C@@H]3CCC4=CC(=O)CC[C@]4(C)[C@H]3CC[C@]12C.Cl.Cl` [53i, (E)-9-((8S,9S,10R,13S,14S,17S)-10,13-dimethyl-3-oxo-2,3,6,7,8,9,10,11,12,13,14,15,16,17-tetradecahydro-1H-cyclopenta[a]phenanthren-17-yl)-5-(2-(methylamino)ethyl)-7-oxa-2,5,8-triazadec-8-en-6-one dihydrochloride], the solubility at 90 min [2] was over 750 µM and the “PBS t1/2” value [3] was 1.51 ± 0.05 h.
With `C/C(=N\OC(=O)N(CCN)CCN)[C@H]1CC[C@H]2[C@@H]3CCC4=CC(=O)CC[C@]4(C)[C@H]3CC[C@]12C.O=C(O)C(F)(F)F.O=C(O)C(F)(F)F` [53j, (8S,9S,10R,13S,14S,17S)-17-((E)-1-(((bis(2-aminoethyl)carbamoyl)oxy)imino)ethyl)-10,13-dimethyl-1,2,6,7,8,9,10,11,12,13,14,15,16,17-tetradecahydro-3H-cyclopenta[a]phenanthren-3-one bis(2,2,2-trifluoroacetate)] the solubility at 90 min [2] was over 750 µM and the “PBS t1/2” value [3] was 10.13 ± 0.41 h.
For `C/C(=N\OC(=O)N(C)CCO)[C@H]1CC[C@H]2[C@@H]3CCC4=CC(=O)CC[C@]4(C)[C@H]3CC[C@]12C` [compound 33, (8S,9S,10R,13S,14S,17S)-17-((E)-1-((((2-hydroxyethyl)(methyl)carbamoyl)oxy)imino)ethyl)-10,13-dimethyl-1,2,6,7,8,9,10,11,12,13,14,15,16,17-tetradecahydro-3H-cyclopenta[a]phenanthren-3-one], the solubility at 90 min [2] was 124 ± 3.28 µM (≈ 53.3 µg/mL) and the half-life [3] was 38.5 h.
With `C/C(=N\OC(=O)OCCN(C)C)[C@H]1CC[C@H]2[C@@H]3CCC4=CC(=O)CC[C@]4(C)[C@H]3CC[C@]12C.Cl` [compound 35, (E)-9-((8S,9S,10R,13S,14S,17S)-10,13-dimethyl-3-oxo-2,3,6,7,8,9,10,11,12,13,14,15,16,17-tetradecahydro-1H-cyclopenta[a]phenanthren-17-yl)-2-methyl-5,7-dioxa-2,8-diazadec-8-en-6-one hydrochloride] the “Plasma t1/2” value [1] was 7.2 h and the half-life [3] was 3.5 ± 0.6 h.
With `CNCCCN(C)C(=O)O/N=C(\C)[C@H]1CC[C@H]2[C@@H]3CCC4=CC(=O)CC[C@]4(C)[C@H]3CC[C@]12C.Cl` [compound 39, (E)-10-((8S,9S,10R,13S,14S,17S)-10,13-dimethyl-3-oxo-2,3,6,7,8,9,10,11,12,13,14,15,16,17-tetradecahydro-1H-cyclopenta[a]phenanthren-17-yl)-6-methyl-8-oxa-2,6,9-triazaundec-9-en-7-one hydrochloride] the “Plasma t1/2” value [1] was over 4 h and the half-life ([3]; d (days)) was over 720 h.
For `CNCC(C)(C)CN(C)C(=O)O/N=C(\C)[C@H]1CCC2[C@@H]3CCC4=CC(=O)CC[C@]4(C)[C@H]3CC[C@@]21C.Cl` (stereo partly drawn) [compound 40, (E)-10-((8S,9S,10R,13S,17S)-10,13-dimethyl-3-oxo-2,3,6,7,8,9,10,11,12,13,14,15,16,17-tetradecahydro-1H-cyclopenta[a]phenanthren-17-yl)-4,4,6-trimethyl-8-oxa-2,6,9-triazaundec-9-en-7-one hydrochloride], the half-life [1, 4] was over 4 h and the half-life ([3]; d (days)) was 547 h.
`C/C(=N\OC(=O)N(C)CCNCCOC(F)(F)F)[C@H]1CC[C@H]2[C@@H]3CCC4=CC(=O)CC[C@]4(C)[C@H]3CC[C@]12C.Cl` [compound 41, (E)-12-((8S,9S,10R,13S,14S,17S)-10,13-dimethyl-3-oxo-2,3,6,7,8,9,10,11,12,13,14,15,16,17-tetradecahydro-1H-cyclopenta[a]phenanthren-17-yl)-1,1,1-trifluoro-8-methyl-2,10-dioxa-5,8,11-triazatridec-11-en-9-one hydrochloride] gave a half-life [1, 4] of 1.1 h and a half-life [3] of 28.5 ± 1.8 h.
